Patent US20230374038A1, “MODULATORS OF CYSTIC FIBROSIS TRANSMEMBRANE CONDUCTANCE REGULATOR” (VERTEX PHARMACEUTICALS INCORPORATED, priority 2020, published 2023)

Target: CFTR (Homo sapiens, UniProt P13569)
Experiment: Membrane Potential Dye, Enteroid Assay B
Assay type: cell-based
Conditions: for EC50: read-out: Ent. B EC50
Method: Base medium (ADF+++) consisted of Advanced DMEM/Ham's F12, 2 mM Glutamax, 10 mM HEPES, 1 µg/mL penicillin/streptomycin.
Intestinal enteroid maintenance medium (IEMM) consisted of ADF+++, 1× B27 supplement, 1× N2 supplement, 1.25 mM N-acetyl cysteine, 10 mM Nicotinamide, 50 ng/mL hEGF, 10 nM Gastrin, 1 pg/mL hR-spondin-1, 100 ng/mL hNoggin, TGF-b type 1 inhibitor A-83-01, 100 μg/mL Primocin, […] P38 MAPK inhibitor SB202190.
Bath 1 Buffer consisted of 1 mM MgCl2, 160 mM NaCl, 4.5 mM KCl, 10 mM HEPES, 10 mM Glucose, 2 mM CaCl2).
Chloride Free Buffer consisted of 1 mM Magnesium Gluconate, 2 mM Calcium Gluconate, 4.5 mM Potassium Gluconate, 160 mM Sodium Gluconate, 10 mM HEPES, 10 mM Glucose.
Bath1 Dye Solution consisted of Bath 1 Buffer, 0.04% Pluronic F127, […] Methyl Oxonol, 30 μM CaCCinh-A01, 30 μM Chicago Sky Blue.
Chloride Free Dye Solution consisted of Chloride Free Buffer, 0.04% Pluronic F127, 20 μM Methyl Oxonol, 30 μM CaCCinh-A01, 30 μM Chicago Sky Blue.
Chloride Free Dye Stimulation Solution consisted of Chloride Free Dye Solution, 10 μM forskolin, 100 μM IBMX, and 300 nM Compound III.
Human intestinal epithelial enteroid cells were obtained from the Hubrecht Institute for Developmental Biology and Stem Cell Research, Utrecht, The Netherlands and expanded in T-Flasks as previously described (Dekkers J F, Wiegerinck C L, de Jonge H R, Bronsveld I, Janssens H M, de Winter-de Groot K M, Brandsma A M, de Jong N W M, Bijvelds M J C, Scholte B J, Nieuwenhuis E E S, van den Brink S, Clevers H, van der Ent C K, Middendorp S and M Beekman J M. A functional CFTR assay using primary cystic fibrosis intestinal organoids. Nat Med. 2013 July; 19(7):939-45.).
Cells were recovered in cell recovery solution, collected by centrifugation at 650 rpm for 5 min at 4° C., resuspended in TryPLE and incubated for 5 min at 37° C. Cells were then collected by centrifugation at 650 rpm for 5 min at 4° C. and resuspended in IEMM containing 10 μM ROCK inhibitor (RI). The cell suspension was passed through a 40 μm cell strainer and resuspended at 1×10^6 cells/mL in IEMM containing 10 μM RI. Cells were seeded at 5000 cells/well into multi-well plates and incubated for overnight at 37° C., 95% humidity and 5% CO2 prior to assay.
Enteroid cells were incubated with test compound in IEMM for 18-24 hours at 37° C., 95% humidity and 5% CO2. […] Briefly, cells were washed 5 times in Bath 1 Buffer. Bath 1 Dye Solution was added and the cells were incubated for 25 min at room temperature. Following dye incubation, cells were washed 3 times in Chloride Free Dye Solution. Chloride transport was initiated by addition of Chloride Free Dye Stimulation Solution and the fluorescence signal was read for 15 min. […] Chloride transport was then expressed as a percentage of the chloride transport following treatment with 1 μM (14S)-8-[3-(2-{Dispiro[2.0.2.1]heptan-7-yl}ethoxy)-1H-pyrazol-1-yl]-12,12-dimethyl-2λ^6-thia-3,9,11,18,23-pentaazatetracyclo[17.3.1.111,14.05,10]tetracosa-1(22),5,7,9,19(23),20-hexaene-2,2,4-trione, 3 μM (R)-1-(2,2-difluorobenzo[d][1,3]dioxol-5-yl)-N-(1-(2,3-dihydroxypropyl)-6-fluoro-2-(1-hydroxy-2-methylpropan-2-yl)-1H-indol-5-yl)cyclopropanecarboxamide and 300 nM acute N-[2,4-bis(1,1-dimethylethyl)-5-hydroxyphenyl]-1,4-dihydro-4-oxoquinoline-3-carboxamide triple combination control (% Activity).

Chain of CFTR (P13569 with tags, fused parts or gaps DEL508-508): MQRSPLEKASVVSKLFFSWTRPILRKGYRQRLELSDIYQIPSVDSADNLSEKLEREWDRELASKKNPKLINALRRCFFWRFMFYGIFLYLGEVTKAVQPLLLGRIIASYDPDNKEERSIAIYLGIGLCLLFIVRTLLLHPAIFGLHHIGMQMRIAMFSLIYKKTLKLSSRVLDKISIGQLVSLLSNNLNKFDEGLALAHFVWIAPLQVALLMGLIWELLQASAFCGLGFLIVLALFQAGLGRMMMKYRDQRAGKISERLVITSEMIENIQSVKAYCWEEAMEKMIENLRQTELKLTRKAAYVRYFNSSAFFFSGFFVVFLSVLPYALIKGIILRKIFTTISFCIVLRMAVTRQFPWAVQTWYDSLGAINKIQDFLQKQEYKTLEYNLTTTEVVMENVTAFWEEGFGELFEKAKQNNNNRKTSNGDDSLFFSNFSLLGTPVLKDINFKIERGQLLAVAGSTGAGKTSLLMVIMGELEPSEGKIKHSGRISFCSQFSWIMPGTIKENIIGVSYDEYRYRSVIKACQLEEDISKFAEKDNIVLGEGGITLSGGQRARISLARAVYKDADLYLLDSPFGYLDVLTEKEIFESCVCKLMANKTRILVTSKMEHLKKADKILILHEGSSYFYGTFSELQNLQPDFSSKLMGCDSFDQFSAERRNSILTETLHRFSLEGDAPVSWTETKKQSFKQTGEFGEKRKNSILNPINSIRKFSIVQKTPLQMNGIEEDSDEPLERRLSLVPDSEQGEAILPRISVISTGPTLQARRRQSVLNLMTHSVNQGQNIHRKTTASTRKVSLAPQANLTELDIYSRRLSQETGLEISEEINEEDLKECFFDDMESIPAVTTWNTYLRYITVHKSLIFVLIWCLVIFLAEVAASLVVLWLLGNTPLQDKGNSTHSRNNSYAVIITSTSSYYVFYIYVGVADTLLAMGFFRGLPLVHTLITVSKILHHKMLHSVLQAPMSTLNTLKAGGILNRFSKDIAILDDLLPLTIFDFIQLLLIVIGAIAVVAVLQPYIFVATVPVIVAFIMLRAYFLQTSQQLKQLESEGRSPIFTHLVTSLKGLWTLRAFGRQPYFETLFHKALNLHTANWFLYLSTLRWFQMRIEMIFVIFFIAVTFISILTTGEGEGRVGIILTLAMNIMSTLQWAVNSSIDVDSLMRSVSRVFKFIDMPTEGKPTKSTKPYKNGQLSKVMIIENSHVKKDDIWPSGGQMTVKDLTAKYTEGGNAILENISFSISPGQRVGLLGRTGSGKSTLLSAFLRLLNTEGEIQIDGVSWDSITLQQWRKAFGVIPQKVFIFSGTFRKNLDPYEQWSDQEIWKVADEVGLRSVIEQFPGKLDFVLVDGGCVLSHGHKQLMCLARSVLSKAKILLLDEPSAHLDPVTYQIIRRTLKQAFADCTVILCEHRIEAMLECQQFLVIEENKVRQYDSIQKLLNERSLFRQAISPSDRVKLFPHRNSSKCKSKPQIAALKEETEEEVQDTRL

Row | Ent. B Max Activity | EC50 | SMILES
1 | +++ (+++ is >60%) | < 1000 nM | [H][C@]1(N2C(=O)c3cccc(c3)S(=O)(=O)Nc3nc(c(C)c(-c4c(C)cccc4C)n3)OC[C@H]2CC(C)(C)C)C[C@@]2(C[C@H](C(C)(C)O)C2)C1 (single isomer, unassigned) [Compound 57]
2 | + (+ is <30%) |  | Cc1cccc(C)c1-c1nc2nc(c1-c1ccn(C)n1)OC[C@@H](C)NC(=O)c1cccc(c1)S(=O)(=O)N2 [Compound 137]
3 | ++ (++ is 30-60%) | < 1000 nM | Cc1cccc(C)c1-c1nc2nc(c1C1=CCN(C(=O)OC(C)(C)C)CC1)O[C@H](C)CNC(=O)c1cccc(c1)S(=O)(=O)N2 [Compound 149]
4 | +++ (+++ is >60%) | < 1000 nM | Cc1cccc(C)c1-c1nc2nc(c1C)OC[C@@H](CC(C)C)N([C@H]1C[C@@]3(C[C@H](N(C)C)C3)C1)C(=O)c1cccc(c1)S(=O)(=O)N2 (single isomer, unassigned) [Compound 54]
5 | +++ (+++ is >60%) | < 1000 nM | Cc1cccc(C)c1-c1nc2nc(c1C)OC[C@@H](CC(C)(C)C)N(C1CC3(CC(N)C3)C1)C(=O)c1cccc(c1)S(=O)(=O)N2 (single isomer, unassigned) [Compound 63]
6 | +++ (+++ is >60%) | < 1000 nM | CCc1c2nc(nc1-c1c(C)cccc1C)NS(=O)(=O)c1cccc(c1)C(=O)N[C@@H]1CN(C3CC4(CCCCC4)C3)C[C@H]1O2 [Compound 115]
7 | +++ (+++ is >60%) | < 1000 nM | COC1CC(N2C(=O)c3cccc(c3)S(=O)(=O)Nc3nc(c(C)c(-c4c(C)cccc4C)n3)OC[C@H]2CC(C)(C)C)C1 (stereo partly shown) [Compound 83]
8 | +++ (+++ is >60%) | < 1000 nM | COc1ccc(-c2c3nc(nc2-c2c(C)cccc2C)NS(=O)(=O)c2cccc(c2)C(=O)N[C@H](C)CO3)cc1 [Compound 144]
9 | + (+ is <30%) |  | Cc1cccc(C)c1-c1nc2nc(c1-c1ccncc1)OC[C@@H](C)NC(=O)c1cccc(c1)S(=O)(=O)N2 [Compound 145]
10 | +++ (+++ is >60%) | < 1000 nM | Cc1cccc(C)c1-c1nc2nc(c1C)OC[C@@H](CC(C)(C)C(F)(F)F)N(C1CC3(CCN(C(=O)OC(C)C)CC3)C1)C(=O)c1cccc(c1)S(=O)(=O)N2 [Compound 184]
11 | +++ (+++ is >60%) | < 1000 nM | Cc1cccc(C)c1-c1nc2nc(c1C)OC[C@@H](CC1(C(F)(F)F)CC1)N(C1CC3(CC(N)C3)C1)C(=O)c1cccc(c1)S(=O)(=O)N2 (stereo partly shown) [Compound 92]
12 | +++ (+++ is >60%) | < 1000 nM | Cc1cccc(C)c1-c1nc2nc(c1C)OC(c1ccc(CC3(C(F)(F)F)CC3)cn1)CN(C)C(=O)c1cccc(c1)S(=O)(=O)N2 (stereo not shown) [Compound 203]
13 | ++ (++ is 30-60%) | 3000 to 30000 nM | Cc1cccc(C)c1-c1nc2nc(c1-c1cnn(C(C)C)c1)O[C@H](C)CNC(=O)c1cccc(c1)S(=O)(=O)N2 [Compound 147]
14 | +++ (+++ is >60%) | < 1000 nM | COc1ccccc1-c1c2nc(nc1-c1c(C)cccc1C)NS(=O)(=O)c1cccc(c1)C(=O)NC[C@@H](C)O2 [Compound 153]
15 | ++ (++ is 30-60%) | < 1000 nM | Cc1cccc(C)c1-c1nc2nc(c1/C=C/C(C)(C)C)OC[C@@H](C)NC(=O)c1cccc(c1)S(=O)(=O)N2 [Compound 138]
16 | +++ (+++ is >60%) | < 1000 nM | Cc1cccc(C)c1-c1nc2nc(c1C)OC[C@@H](CC(C)(C)C)N(C1CC3(CC(NC(=O)OC(C)C)C3)C1)C(=O)c1cccc(c1)S(=O)(=O)N2 (single isomer, unassigned) [Compound 62]
17 | ++ (++ is 30-60%) | < 1000 nM | Cc1cccc(C)c1-c1nc2nc(c1CO)OC[C@@H](CC(C)C)N(C1CC3(CC3)C1)C(=O)c1cccc(c1)S(=O)(=O)N2 [Compound 170, (11R)-6-(2,6-Dimethylphenyl)-7-(hydroxymethyl)-11-isobutyl-2,2-dioxo-12-spiro[2.3]hexan-5-yl-9-oxa-2λ^6-thia-3,5,12,19-tetrazatricyclo[12.3.1.14,8]nonadeca-1(18),4(19),5,7,14,16-hexaen-13-one]
18 | +++ (+++ is >60%) | < 1000 nM | Cc1cccc(C)c1-c1nc2nc(c1C)OC[C@@H](CC(C)C)N(C1CC3(CC(CO)C3)C1)C(=O)c1cccc(c1)S(=O)(=O)N2 (stereo in doubt) [Compound 66]
19 | ++ (++ is 30-60%) | 1000 to 3000 nM | Cc1cccc(C)c1-c1nc2nc(c1C1=CCN(C(=O)OC(C)(C)C)CC1)OC[C@@H](C)NC(=O)c1cccc(c1)S(=O)(=O)N2 [Compound 136]
20 | +++ (+++ is >60%) | < 1000 nM | Cc1cccc(C)c1-c1nc2nc(c1OC(C)C)OC[C@@H](CC(C)C)N(C1CC3(CC3)C1)C(=O)c1cccc(c1)S(=O)(=O)N2 [Compound 189]
21 | ++ (++ is 30-60%) | 3000 to 30000 nM | Cc1cccc(C)c1-c1nc2nc(c1C1=CCOCC1)OC[C@@H](C)NC(=O)c1cccc(c1)S(=O)(=O)N2 [Compound 140]
22 | +++ (+++ is >60%) | 1000 to 3000 nM | COc1ccccc1-c1c2nc(nc1-c1c(C)cccc1C)NS(=O)(=O)c1cccc(c1)C(=O)N[C@H](C)CO2 [Compound 123, (11R)-6-(2,6-Dimethylphenyl)-7-(2-methoxyphenyl)-11-methyl-2,2-dioxo-9-oxa-2λ^6-thia-3,5,12,19-tetrazatricyclo[12.3.1.14,8]nonadeca-1(18),4(19),5,7,14,16-hexaen-13-one]
23 | +++ (+++ is >60%) | < 1000 nM | COC1CC(N2C(=O)c3cccc(c3)S(=O)(=O)Nc3nc(c(C)c(-c4c(C)cccc4C)n3)OC[C@H]2CC2(C(F)(F)F)CC2)C1 (stereo partly shown) [Compound 99]
24 | +++ (+++ is >60%) | < 1000 nM | Cc1cccc(C)c1-c1nc2nc(c1C)OC[C@@H](CC(C)(C)C)N(C1CC3(CC(CO)C3)C1)C(=O)c1cccc(c1)S(=O)(=O)N2 (stereo in doubt) [Compound 79]
25 | +++ (+++ is >60%) | < 1000 nM | COC1CC(N2C(=O)c3cccc(c3)S(=O)(=O)Nc3nc(c(C)c(-c4c(C)cccc4C)n3)OC[C@H]2CC(C)C)C1 (stereo in doubt) [Compound 72]
26 | + (+ is <30%) |  | Cc1cccc(C)c1-c1nc2nc(c1-c1cnn(C)c1)O[C@H](C)CNC(=O)c1cccc(c1)S(=O)(=O)N2 [Compound 128]
27 | +++ (+++ is >60%) | < 1000 nM | Cc1cccc(C)c1-c1nc2nc(c1/C=C/C(C)(C)C)O[C@H](C)CNC(=O)c1cccc(c1)S(=O)(=O)N2 [Compound 121, (10R)-7-[(E)-3,3-Dimethylbut-1-enyl]-6-(2,6-dimethylphenyl)-10-methyl-2,2-dioxo-9-oxa-2λ^6-thia-3,5,12,19-tetrazatricyclo[12.3.1.14,8]nonadeca-1(18),4(19),5,7,14,16-hexaen-13-one]
28 | +++ (+++ is >60%) | < 1000 nM | Cc1cccc(C)c1-c1nc2nc(c1C)OC[C@@H](CC1(C(F)(F)F)CC1)N(C1CC3(CC(NC(=O)OC(C)(C)C)C3)C1)C(=O)c1cccc(c1)S(=O)(=O)N2 (stereo in doubt) [Compound 97]
29 | +++ (+++ is >60%) | < 1000 nM | COc1ccc(-c2c3nc(nc2-c2c(C)cccc2C)NS(=O)(=O)c2cccc(c2)C(=O)NC[C@@H](C)O3)cc1 [Compound 130]
